Assay results from patent publication US20060223996A1, “IL-12 modulatory compounds” (Synta Pharmaceuticals Corp., priority 2004, published 2006).

System: IL-12
Test: Human in vitro assay: inhibition of IL-12 production in IFNγ/LPS- or IFNγ/SAC-stimulated human PBMC or THP-1 cells (ELISA)
Type: cell-based
Conditions: read-out: IC50 Range (representative in vitro IC50 data)
Description: The biological activities of a heterocyclic compound can be evaluated by a number of cell-based assays. One of such assays can be conducted using cells from human peripheral blood mononuclear cells (PBMC) or human monocytic cell line (THP-1). The cells are stimulated with a combination of human interferon-γ (IFNγ) and lipopolysaccharide or a combination of IFNγ and Staphylococcus aureus Cowan I in the presence of a test compound. The level of inhibition of IL-12 production can be measured by determining the amount of p70 by using a sandwich ELISA assay with anti-human IL-12 antibodies. IC50 of the test compound can then be determined. Specifically, PBMC or THP-1 cells are incubated with the test compound. Cell viability was assessed using the bioreduction of MTS [3-(4,5-dimethylthiazol-2-yl)-5-(3-carboxymethoxyphenyl)-2-(4-sulfophenyl)-2H-tetrazolium](Promega, Madison, Wis.).
Human In Vitro Assay. Human PBMC were isolated by centrifugation using Ficoll-Paque (Pharmacia Biotech, Uppsala, Sweden) and prepared in RPMI medium supplemented with 10% fetal calf serum (FCS), 100 U/mL penicillin, and 100 μg/mL streptomycin. PBMC were plated in wells of a 96-well plate at a concentration of 5×10^5 cells/well, and primed by adding IFNγ (30 U/mL) for 22 h and stimulated by adding LPS (1 μg/mL), or by adding IFNγ (100 U/mL) and then stimulated by adding SAC (0.01%). A test pyrimidine compound was dissolved in DMSO, and added to wells of the 96-well plate. The final DMSO concentration was adjusted to 0.25% in all cultures, including the compound-free control. Human THP-1 cells were plated in wells, primed by adding IFNγ (100 U/mL) for 22 h and stimulated by adding SAC (0.025%) in the presence of different concentrations of the pyrimidine compound. Cell-free supernatants were taken 18 h later for measurement of cytokines. Cell viability was assessed using the bioreduction of MTS. Cell survival was estimated by determining the ratio of the absorbance in compound-treated groups versus compound-free control.
The supernatant was assayed for the amount of IL-12p40, IL-12p70, or IL-10 by using a sandwich ELISA with anti-human antibodies, i.e., a Human IL-12 p40 ELISA kit from R&D Systems (Berkeley, Calif.), and a Human IL-12 p70 or IL-10 ELISA kit from Endogen (Cambridge, Mass.). Assays were based on the manufacturer's instructions.
The biological activities of pyrimidine compounds were tested on human PBMC or THP-1 cells.

IC50 | SMILES
≥ 1 µM | CCc1cccc(NC(=O)c2cc(OCCN3CCOCC3)nc(N3CCOCC3)n2)c1 [Compound 46, 2-Morpholin-4-yl-6-(2-morpholin-4-yl-ethoxy)-pyrimidine-4-carboxylic acid (3-ethyl-phenyl)-amide]
≥ 1 µM | O=C(Nc1cccc(Br)c1)c1cc(OCCN2CCOCC2)nc(N2CCOCC2)n1 [Compound 47, 2-Morpholin-4-yl-6-(2-morpholin-4-yl-ethoxy)-pyrimidine-4-carboxylic acid (3-bromo-phenyl)-amide]
≥ 1 µM | Cc1cc(NC(=O)c2cc(OCCN3CCOCC3)nc(N3CCOCC3)n2)no1 [Compound 48, 2-Morpholin-4-yl-6-(2-morpholin-4-yl-ethoxy)-pyrimidine-4-carboxylic acid (5-methyl-isoxazol-3-yl)-amide]
≥ 1 µM | CC(=O)Nc1ccccc1NC(=O)c1cc(OCCN2CCOCC2)nc(N2CCOCC2)n1 [Compound 49, 2-Morpholin-4-yl-6-(2-morpholin-4-yl-ethoxy)-pyrimidine-4-carboxylic acid (2-acetylamino-phenyl)-amide]
≥ 1 µM | NS(=O)(=O)c1cccc(NC(=O)c2cc(OCCN3CCOCC3)nc(N3CCOCC3)n2)c1 [Compound 50, 2-Morpholin-4-yl-6-(2-morpholin-4-yl-ethoxy)-pyrimidine-4-carboxylic acid (3-sulfamoyl-phenyl)-amide]
< 1 µM | Cc1ccc(NC(=O)c2cc(N3CCOCC3)nc(N3CCOCC3)n2)cc1C [Compound 51, 2,6-Di-morpholin-4-yl-pyrimidine-4-carboxylic acid (3,4-dimethyl-phenyl)-amide]
≥ 1 µM | CN(C)C(=O)c1cccc(NC(=O)c2cc(OCCN3CCOCC3)nc(N3CCOCC3)n2)c1 [Compound 53, 2-Morpholin-4-yl-6-(2-morpholin-4-yl-ethoxy)-pyrimidine-4-carboxylic acid (3-dimethylcarbamoyl-phenyl)-amide]
≥ 1 µM | O=C(c1cc(OCCN2CCOCC2)nc(N2CCOCC2)n1)n1ccc2ccccc21 [Compound 54, Indol-1-yl-[2-morpholin-4-yl-6-(2-morpholin-4-yl-ethoxy)-pyrimidin-4-yl]-methanone]
≥ 1 µM | Cc1cccc(NC(=O)c2cc(OCCN3CCOCC3)nc(N3CCOCC3)n2)c1 [Compound 56, 2-Morpholin-4-yl-6-(2-morpholin-4-yl-ethoxy)-pyrimidine-4-carboxylic acid m-tolylamide]
≥ 1 µM | CN(C)c1ccc(NC(=O)c2cc(OCCN3CCOCC3)nc(N3CCOCC3)n2)cc1 [Compound 57, 2-Morpholin-4-yl-6-(2-morpholin-4-yl-ethoxy)-pyrimidine-4-carboxylic acid (4-dimethylamino-phenyl)-amide]
≥ 1 µM | Cc1[nH]c2ccc(NC(=O)c3cc(OCCN4CCOCC4)nc(N4CCOCC4)c3)cc2c1C [Compound 66, N-(2,3-Dimethyl-1H-indol-5-yl)-2-morpholin-4-yl-6-(2-morpholin-4-yl-ethoxy)-isonicotinamide]
< 1 µM | Cc1cccc(NNC(=O)c2cc(N3CCOCC3)nc(OCCN3CCOCC3)n2)c1 [Compound 80, 6-Morpholin-4-yl-2-(2-morpholin-4-yl-ethoxy)-pyrimidine-4-carboxylic acid N′-m-tolyl-hydrazide]
≥ 1 µM | Cc1cccc(NNC(=O)c2cc(OCCN3CCOCC3)nc(N3CCOCC3)c2)c1 [Compound 82, 2-Morpholin-4-yl-6-(2-morpholin-4-yl-ethoxy)-isonicotinic acid N′-m-tolyl-hydrazide]

Continued, compound first:

SMILES | IC50
NC(=O)c1cccc(NC(=O)c2cc(N3CCOCC3)nc(N3CCOCC3)n2)c1 [Compound 52, 2,6-Di-morpholin-4-yl-pyrimidine-4-carboxylic acid (3-carbamoyl-phenyl)-amide] | ≥ 1 µM
Cc1cccc(NC(=O)c2cc(N3CCOCC3)nc(OCCc3ccccn3)n2)c1 [Compound 62, 6-Morpholin-4-yl-2-(2-pyridin-2-yl-ethoxy)-pyrimidine-4-carboxylic acid m-tolylamide] | ≥ 1 µM
Cc1[nH]c2ccc(NC(=O)c3cc(N4CCOCC4)nc(OCCc4ccccn4)n3)cc2c1C [Compound 63, 6-Morpholin-4-yl-2-(2-pyridin-2-yl-ethoxy)-pyrimidine-4-carboxylic acid (2,3-dimethyl-1H-indol-5-yl)-amide] | ≥ 1 µM
Cc1ccc2nc(NC(=O)c3cc(N4CCOCC4)nc(OCCc4ccccn4)n3)sc2c1 [Compound 64, 6-Morpholin-4-yl-2-(2-pyridin-2-yl-ethoxy)-pyrimidine-4-carboxylic acid (6-methyl-benzothiazol-2-yl)-amide] | ≥ 1 µM
COc1ccc(CCOc2cc(C(=O)Nc3cccc(C)c3)cc(N3CCOCC3)n2)cc1OC [Compound 65, 2-[2-(3,4-Dimethoxy-phenyl)-ethoxy]-6-morpholin-4-yl-N-m-tolyl-isonicotinamide] | ≥ 1 µM
Cc1cccc(NC(=O)Nc2cc(OCCc3ccccn3)nc(N3CCOCC3)n2)c1 [Compound 67, 1-[2-Morpholin-4-yl-6-(2-pyridin-2-yl-ethoxy)-pyrimidin-4-yl]-3-m-tolyl-urea] | < 1 µM
Cc1cccc(NC(=O)Nc2cc(N3CCOCC3)nc(OCCc3ccccn3)n2)c1 [Compound 68, 1-[6-Morpholin-4-yl-2-(2-pyridin-2-yl-ethoxy)-pyrimidin-4-yl]-3-m-tolyl-urea] | ≥ 1 µM
Cc1cccc(N(C)C(=O)Nc2cc(N3CCOCC3)nc(OCCc3ccccn3)n2)c1 [Compound 69, 1-Methyl-3-[6-morpholin-4-yl-2-(2-pyridin-2-yl-ethoxy)-pyrimidin-4-yl]-1-m-tolyl-urea] | ≥ 1 µM
Cc1cccc(NC(=O)Nc2nc(OCCc3ccccn3)cc(N3CCOCC3)n2)c1 [Compound 71, 1-[4-Morpholin-4-yl-6-(2-pyridin-2-yl-ethoxy)-pyrimidin-2-yl]-3-m-tolyl-urea] | ≥ 1 µM
O=C(Oc1ccc2[nH]ccc2c1)c1cc(OCCc2ccccn2)nc(N2CCOCC2)n1 [Compound 72, 2-Morpholin-4-yl-6-(2-pyridin-2-yl-ethoxy)-pyrimidine-4-carboxylic acid 1H-indol-5-yl ester] | ≥ 1 µM
O=C(Nc1cc(OCCc2ccccn2)nc(N2CCOCC2)n1)c1ccc2[nH]ccc2c1 [Compound 73, 1H-Indole-5-carboxylic acid [2-morpholin-4-yl-6-(2-pyridin-2-yl-ethoxy)-pyrimidin-4-yl]-amide] | ≥ 1 µM
O=C(Nc1cc(N2CCOCC2)nc(OCCc2ccccn2)n1)c1ccc2[nH]ccc2c1 [Compound 74, 1H-Indole-5-carboxylic acid [6-morpholin-4-yl-2-(2-pyridin-2-yl-ethoxy)-pyrimidin-4-yl]-amide] | ≥ 1 µM
Cc1cccc(C(=O)Nc2nc(OCCc3ccccn3)cc(N3CCOCC3)n2)c1 [Compound 75, 3-Methyl-N-[4-morpholin-4-yl-6-(2-pyridin-2-yl-ethoxy)-pyrimidin-2-yl]-benzamide] | ≥ 1 µM
O=C(Nc1nc(OCCc2ccccn2)cc(N2CCOCC2)n1)c1ccncc1 [Compound 76, N-[4-Morpholin-4-yl-6-(2-pyridin-2-yl-ethoxy)-pyrimidin-2-yl]-isonicotinamide] | ≥ 1 µM
Cc1cc(C(=O)Nc2nc(OCCc3ccccn3)cc(N3CCOCC3)n2)no1 [Compound 77, 5-Methyl-isoxazole-3-carboxylic acid-[4-morpholin-4-yl-6-(2-pyridin-2-yl-ethoxy)-pyrimidin-2-yl]-amide] | ≥ 1 µM
Cc1cccc(NNC(=O)c2cc(N3CCOCC3)nc(OCCc3ccccn3)n2)c1 [Compound 78, 6-Morpholin-4-yl-2-(2-pyridin-2-yl-ethoxy)-pyrimidine-4-carboxylic acid N′-m-tolyl-hydrazide] | < 1 µM
Cc1cccc(NNC(=O)c2cc(OCCc3ccccn3)nc(N3CCOCC3)n2)c1 [Compound 79, 2-Morpholin-4-yl-6-(2-pyridin-2-yl-ethoxy)-pyrimidine-4-carboxylic acid N′-m-tolyl-hydrazide] | ≥ 1 µM
Cc1ccc(NNC(=O)c2cc(N3CCOCC3)nc(OCCN3CCOCC3)n2)cc1C [Compound 81, 6-Morpholin-4-yl-2-(2-morpholin-4-yl-ethoxy)-pyrimidine-4-carboxylic acid N′-(3,4-dimethyl-phenyl)-hydrazide] | < 1 µM
Cc1cccc(OC(=O)Nc2cc(OCCc3ccccn3)nc(N3CCOCC3)n2)c1 [Compound 83, [2-Morpholin-4-yl-6-(2-pyridin-2-yl-ethoxy)-pyrimidin-4-yl]-carbamic acid m-tolyl ester] | ≥ 1 µM
